From patent US20200079786A1, “ANALOGS OF […] AS SOLUBLE EPOXIDE HYDROLASE INHIBITORS” (UNIVERSITAT DE BARCELONA, priority 2015, published 2020)
≈ marks a conversion by molar mass, not a printed value. Where two headings read alike, the source gives them in different places.

What was measured:
recombinant human sEH = target: T1, recombinant human sEH (Homo sapiens, UniProt P34913); experiment: In vitro determination of sEH inhibition activity (fluorescent assay, PHOME substrate); format: biochemical; conditions: mean ± Standard Error, min. three replicates, read-out: IC50 (nM) ± SE, sEH inhibition activity
T1 construct: purchased Cayman Chemical 10011669
T1 sequence (P34913 1-555): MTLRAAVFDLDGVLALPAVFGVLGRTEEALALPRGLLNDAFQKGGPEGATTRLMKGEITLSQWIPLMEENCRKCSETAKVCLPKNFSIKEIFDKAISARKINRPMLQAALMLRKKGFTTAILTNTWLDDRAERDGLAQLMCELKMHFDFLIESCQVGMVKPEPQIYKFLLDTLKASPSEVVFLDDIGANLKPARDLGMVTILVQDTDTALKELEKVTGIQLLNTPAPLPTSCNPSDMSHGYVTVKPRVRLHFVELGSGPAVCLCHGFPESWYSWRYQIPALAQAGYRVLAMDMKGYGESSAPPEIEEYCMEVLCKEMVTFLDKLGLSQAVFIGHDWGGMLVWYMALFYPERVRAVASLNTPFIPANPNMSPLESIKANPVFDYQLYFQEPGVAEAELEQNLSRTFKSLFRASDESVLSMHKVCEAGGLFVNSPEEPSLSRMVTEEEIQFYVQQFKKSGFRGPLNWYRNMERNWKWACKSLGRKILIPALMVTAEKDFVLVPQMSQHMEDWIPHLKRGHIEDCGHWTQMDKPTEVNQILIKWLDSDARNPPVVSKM
Experimental: 3-(Phenyl-oxiranyl)-acetic acid cyano-(6-methoxy-naphthalen-2-yl)-methyl ester (PHOME; from Cayman Chemical, item number 10009134; CAS 1028430-42-3); cf. N. M. Wolf et al., Anal. Biochem. 2006, vol. 355, pp. 71-80.
Solutions: • Assay buffer: Bis/Tris HCl 25 mM pH 7.0 containing 0.1 mg/mL of bovine serum albumin (BSA). • PHOME at 200 μM in DMSO. • Solution of recombinant human sEH (Cayman Chemical, item number 10011669), diluted with assay buffer. • Inhibitors dissolved in DMSO at appropriated concentrations.
In a black 96-well plate (Greiner Bio-One, item number 655900), fill the background wells with 90 μL and the positive control and inhibitor wells with 85 μL of assay buffer. Add 5 μL of DMSO to background and positive control wells, and then add 5 μL of inhibitor solution in inhibitor wells. Add 5 μL of the solution of hsEH to the positive control and inhibitor wells and mix several time. Prepare a 1/21 dilution of the solution of PHOME with assay buffer according to final volume required, and then add 105 μL of each well. Shake carefully the plate for 10 seconds and incubate for 5 minutes at room temperature. […] Results were obtained by regression analysis from at least three data points in a linear region of the curve. IC50 values are average of minimum three independent replicates.

[1] = Determination of cytotoxicity in THLE-2 cells (ATP viability); format: cell-based; conditions: human
Experimental: Cytotoxic effects of assayed compounds were tested using the immortalized human liver cell line THLE-2 (ATCC CRL-2706). Cells were cultured in BEGM medium (Clonetics # CC-4175) containing all the supplements kit except additional EGF and G418. Medium was completed by adding 0.7 μg/mL phosphoethanolamine, 0.5 ng/mL epidermal growth factor, antibiotics (penicillin and streptomycin) and 10% fetal bovine serum (FBS).
Cells were plated in 96-well black microplates at 10,000 cells/well density and were incubated at 37° C. (5% CO2, 95% humidity) for 24 h to allow the cells to adhere and form a monolayer. Test compounds were solubilized in 100% DMSO at a concentration curve way and then diluted with cell culture medium containing 10% DMSO. The final concentrations of the test compounds (1% DMSO) ranged from 0-100 μM in a final volume of 200 μL. Microplates were maintained at 37° C. (5% CO2, 95% humidity) during 3 days. Following this 72 h exposure to test compounds, cell viability in each well was determined by measuring the concentration of cellular adenosine triphosphate (ATP) using the ATP1Step Kit as described by the manufacturer (Perkin-Elmer). In a typical procedure, 50 μL of cell reagent is added to all wells of each test plate followed by incubation for 10 min at room temperature on an orbital shaker. ATP concentration was determined by reading chemical luminescence using the Envision plate reader (PerkinElmer). The percentage of viable cells relative to the non-drug treated controls was determined for each well and LC50 values were calculated as concentrations projected to kill 50% of the cells following a 72 h exposure, an average of minimum two independent replicates.

sEH in AR42j cells = target: T2, sEH in AR42j cells (Rattus norvegicus, UniProt P80299); experiment: In vitro determination of sEH inhibition activity in AR42j cells (cell-based fluorescent assay); conditions: AR-42J, read-out: % Inhn. ± SE (100 μM), sEH inhibition activity in cell culture
T2 sequence (P80299 1-554): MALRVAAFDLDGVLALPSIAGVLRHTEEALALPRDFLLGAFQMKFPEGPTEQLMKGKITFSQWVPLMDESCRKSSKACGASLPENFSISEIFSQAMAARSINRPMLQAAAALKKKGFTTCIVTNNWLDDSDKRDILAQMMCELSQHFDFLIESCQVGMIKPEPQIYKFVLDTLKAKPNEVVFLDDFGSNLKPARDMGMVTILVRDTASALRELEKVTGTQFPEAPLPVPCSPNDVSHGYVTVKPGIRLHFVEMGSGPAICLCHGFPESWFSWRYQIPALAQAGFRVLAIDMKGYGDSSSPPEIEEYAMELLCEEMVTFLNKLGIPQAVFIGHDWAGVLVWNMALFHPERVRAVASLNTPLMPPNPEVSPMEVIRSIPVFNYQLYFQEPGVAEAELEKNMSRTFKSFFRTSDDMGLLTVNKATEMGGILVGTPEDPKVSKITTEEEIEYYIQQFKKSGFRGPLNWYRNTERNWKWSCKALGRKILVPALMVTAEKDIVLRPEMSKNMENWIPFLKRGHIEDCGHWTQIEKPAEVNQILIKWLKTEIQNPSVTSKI
Experimental: Solutions Preparation: • Assay buffer 1×: add 10 mL of the CBA-Buffer (10×) to 90 mL of distilled water. • Lysis Buffer: add 50 μL of the CBA Digitonin Solution to 10 mL of Buffer Assay 1×. • Substrate Solution: dilute 10 μL of CBA sEH Substrate with 10 mL of Assay Buffer 1×. • Standards: preparation of 7 concentrations of CBA 6-methoxy-2-naphtalaldehyde from 0 until 2 M with Assay Buffer 1×. • sEH Positive Control: Prepare another stock A (1 μg/ml: 1 μL CBA sEH Positive Control+1 mL Assay Buffer 1×). From the already prepared stock A, prepare 250 μL of sEH (10 ng/mL): 2.5 μL sEH stock A+250 μL Assay Buffer 1×). • sEH Inhibitor AUDA: dilute 10 μL CBA sEH Inhibitor with 500 ml Assay Buffer 1×. • Inhibitors dissolved in DMSO at appropriated concentrations.
Seed cells in a 96-well plate at a density of (2×10^4)-(5×10^4) cells/well in 100 μL of culture medium with or without compounds to be tested. Incubation of the cells in a CO2 incubator at 37° C. for 48 hours. Aspirate the culture medium and add 200 μL of Assay Buffer 1× to each well. Centrifuge the plate at 800 rmp for 5 minutes. Aspirate the supernatant and add 100 μL of Lysis Buffer to each well. Incubate with gentle shaking on an orbital shaker for 30 minutes at room temperature. Centrifuge the plate at 3000 rpm for 20 minutes at 4° C. Transfer 90 μL of the supernatants to the 96-Well Solid Plate (black). Add 10 μL Assay Buffer 1× or 10 μL of the AUDA solution to appropriate wells. For positive control wells, add 100 μL of the 10 ng/mL sEH Positive Control to two wells. Add 200 μL of 6-methoxy-2-Naphthaldehyde Standards to corresponding wells of the black plate. Add 100 μL of the sEH Substrate Solution to each well, except the standards. Incubate the plate at 37° C. for 30 minutes. […] The intensity of fluorescence was used to analyze and calculate inhibition percentages, shown in the Table as average of minimum three independent replicates.

CYP2C19 = CYP2C19 (Homo sapiens, UniProt P33261); experiment: Inhibition of human cytochrome P450 CYP2C19; format: in vitro ADME; conditions: human cytochrome P450 enzyme
Description: (§1) The epoxidation of arachidonic acid (AA) by selected cytochrome P450 epoxygenases generates epoxyeicosatrienoic acids (EETs). These EETs show anti-inflammatory, antihypertensive, analgesic, angiogenic, and antiatherosclerotic effects in rodents and humans. sEH converts EETs to their corresponding dihydroxyeicosatrienoic acids (DHETs), whereby the biological effects of EETs are diminished, eliminated, or altered. Among the P450 enzymes, it is known that CYP2C19 and CYP1A2 have the highest formation rate of EETs from AA (cf. A. A. El-Sherbeni et al. “Repurposing resveratrol and fluconazole to modulate human cytrochrome P450-mediated arachidonic acid metabolites”, Molecular Pharmaceutics 2016, vol. 13, pp. 1278-1288). For this reason, a highly desirable aspect of any new sEH inhibitor is selectivity in front of CYP2C19 and CYP1A2.

CYP1A2 = target: T3, CYP1A2 (Homo sapiens, UniProt P05177); experiment: Inhibition of human cytochrome P450 CYP1A2; format: in vitro ADME; conditions: human cytochrome P450 enzyme
T3 sequence (P05177 1-516): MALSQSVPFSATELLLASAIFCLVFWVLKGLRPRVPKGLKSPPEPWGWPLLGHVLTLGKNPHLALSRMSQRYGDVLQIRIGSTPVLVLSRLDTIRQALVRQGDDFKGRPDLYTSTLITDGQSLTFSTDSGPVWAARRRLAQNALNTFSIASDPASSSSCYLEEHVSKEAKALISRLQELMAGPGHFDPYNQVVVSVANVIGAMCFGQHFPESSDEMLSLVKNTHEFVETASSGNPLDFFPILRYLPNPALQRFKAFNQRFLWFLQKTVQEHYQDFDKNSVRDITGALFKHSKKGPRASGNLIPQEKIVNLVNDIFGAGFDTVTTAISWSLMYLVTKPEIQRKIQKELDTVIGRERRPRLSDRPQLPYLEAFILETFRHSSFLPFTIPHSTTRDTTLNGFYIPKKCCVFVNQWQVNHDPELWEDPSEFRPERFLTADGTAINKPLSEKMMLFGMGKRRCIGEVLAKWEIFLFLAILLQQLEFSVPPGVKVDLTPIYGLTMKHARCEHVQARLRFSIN
Description: as §1

[2] = Determination of water solubility (nephelometry); format: physicochemical; conditions: aqueous with cosolvent or surfactant or cyclodextrin, kinetic from dmso stock; 5% DMSO: 95% PBS buffer, 37° C., read after 2 and 4 h; read-out: S (solubility)
[3] = Parallel artificial membrane permeation assay for blood-brain barrier (PAMPA-BBB); format: in vitro ADME, porcine; conditions: PBS:EtOH (70:30)
Experimental: The in vitro permeability (Pe) of the test compounds through lipid extract of porcine brain membrane was determined. Assayed compounds were tested using a mixture of PBS:EtOH (70:30). […] From this equation and taking into account the limits established by Di et al. for BBB permeation, the ranges of permeability were established, as follows.

Sequence of CYP2C19 (P33261 whole entry): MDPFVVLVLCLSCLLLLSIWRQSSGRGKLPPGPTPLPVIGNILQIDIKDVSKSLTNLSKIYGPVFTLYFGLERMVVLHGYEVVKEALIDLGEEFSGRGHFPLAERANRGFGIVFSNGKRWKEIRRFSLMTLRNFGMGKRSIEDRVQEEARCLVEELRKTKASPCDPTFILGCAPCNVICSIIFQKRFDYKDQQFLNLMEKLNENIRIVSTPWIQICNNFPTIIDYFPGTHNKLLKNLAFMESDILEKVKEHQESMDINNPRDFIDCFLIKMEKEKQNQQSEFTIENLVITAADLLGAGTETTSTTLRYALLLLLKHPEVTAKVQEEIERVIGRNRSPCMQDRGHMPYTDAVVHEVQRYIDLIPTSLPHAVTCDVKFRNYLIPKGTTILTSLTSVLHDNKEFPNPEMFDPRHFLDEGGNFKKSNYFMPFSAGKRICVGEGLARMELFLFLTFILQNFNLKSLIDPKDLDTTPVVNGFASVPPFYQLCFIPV

**Q.** For `O=C(Nc1ccc(F)c(F)c1F)N[C@@]12CC3C[C@H](C1)C[C@](C1CCCCC1)(C3)O2` (stereo in doubt) [Id, 1-(3-cyclohexyl-2-oxaadamantan-1-yl)-3-(2,3,4-trifluorophenyl)urea], which IC50 (recombinant human sEH) is on record?
**A.** The IC50 was 17.5 ± 3.6 nM.

**Q.** For `CC(=O)N1CCC(NC(=O)NC23CC4CC(CC(C4)O2)C3)CC1` [If, 1-(2-oxaadamantan-1-yl)-3-(1-acetylpiperidin-4-yl)urea], which CC50 at 72 h ([1]; THLE-2 cells, 72 h exposure, 0-100 μM, read-out: LC50 (μM), cytotoxicity) is on record?
**A.** Its CC50 at 72 h is over 100 µM.

**Q.** And the inhibition at 100 µM (sEH in AR42j cells)?
**A.** The inhibition at 100 µM was 42.1 ± 5%.

**Q.** And the inhibition at 1 µM (CYP2C19)?
**A.** Its inhibition at 1 µM is at most 6%.

**Q.** And the IC50 (recombinant human sEH)?
**A.** Its IC50 is 19.8 ± 6.2 nM.

**Q.** What about the inhibition at 1 µM (CYP1A2) of the same compound?
**A.** The inhibition at 1 µM was at most 6%.

**Q.** And the solubility [2]?
**A.** The solubility was over 100 µM.

**Q.** With `CC12CC3CC(C1)CC(NC(=O)Nc1ccc(F)c(F)c1F)(C3)O2` [Ib, 1-(3-methyl-2-oxaadamantan-1-yl)-3-(2,3,4-trifluorophenyl)urea] as the compound, how does the CC50 at 72 h [1] read?
**A.** The CC50 at 72 h was over 100 µM.

**Q.** What about the CNS prediction [3] of the same compound?
**A.** Its CNS prediction is “CNS+ (Compounds of high BBB permeation (CNS+): Pe (10^6 cm s^−1)>5.181)”.

**Q.** And the IC50 (recombinant human sEH)?
**A.** The IC50 was 21.3 ± 5.4 nM.

**Q.** And the solubility [2]?
**A.** Its solubility is 63 µM (≈ 21.4 µg/mL).

**Q.** With `CCC12CC3CC(C1)CC(NC(=O)Nc1ccc(F)c(F)c1F)(C3)O2` [Ic, 1-(3-ethyl-2-oxaadamantan-1-yl)-3-(2,3,4-trifluorophenyl)urea] as the compound, how does the CC50 at 72 h [1] read?
**A.** Its CC50 at 72 h is over 100 µM.

**Q.** And the CNS prediction [3]?
**A.** Its CNS prediction is “CNS+ (Compounds of high BBB permeation (CNS+): Pe (10^6 cm s^−1)>5.181)”.

**Q.** What about the IC50 (recombinant human sEH) of the same compound?
**A.** The IC50 was 8.1 ± 3.2 nM.

**Q.** What about the solubility [2] of the same compound?
**A.** The solubility was 77 µM (≈ 27.3 µg/mL).

**Q.** With `O=C(Nc1ccc(F)c(F)c1F)NC12CC3CC(C1)CC(c1ccccc1)(C3)O2` [Ie, 1-(3-phenyl-2-oxaadamantan-1-yl)-3-(2,3,4-trifluorophenyl)urea] as the compound, how does the IC50 (recombinant human sEH) read?
**A.** The IC50 was 21.3 ± 4.3 nM.
